Laboratory results published in ChEMBL document CHEMBL4043147, “9,19-Cycloartenol glycoside G3 from Cimicifuga simplex regulates immune responses by modulating Th17/Treg ratio” (Bioorg Med Chem, 2017).
pIC50: −log10 of the molar value. The source made the active and inactive calls. No cut-off for these calls is given here.

Columns and labels:
Splenocyte = assay: Cytotoxicity against mouse splenocytes after 48 hrs by MTT assay; format: cell-based
Treg cell [1] = assay: Increase in IL-10 production in C57BL/6 mouse Treg cells by ELISA; format: functional, cell-based
CD4-positive T cell [2] = assay: Inhibition of C57BL/6 mouse CD4-positive T cell differentiation assessed as decrease in RORgammat mRNA level 0.1 to 10 uM by real-time PCR analysis; format: functional, cell-based
[3] = target: T1, Tyrosine-protein kinase JAK1/JAK2 (Mus musculus) (UniProt P52332+Q62120); assay: Inhibition of JAK1/JAK2 in C57BL/6 mouse CD4-positive T cell assessed as reduction in IFNgamma-induced STAT3 phosphorylation at 1 to 10 uM pretreated for 1 hr followed by IFNgamma addition after 15 mins by Western blot analysis
T1 sequence (P52332 whole entry, looked up): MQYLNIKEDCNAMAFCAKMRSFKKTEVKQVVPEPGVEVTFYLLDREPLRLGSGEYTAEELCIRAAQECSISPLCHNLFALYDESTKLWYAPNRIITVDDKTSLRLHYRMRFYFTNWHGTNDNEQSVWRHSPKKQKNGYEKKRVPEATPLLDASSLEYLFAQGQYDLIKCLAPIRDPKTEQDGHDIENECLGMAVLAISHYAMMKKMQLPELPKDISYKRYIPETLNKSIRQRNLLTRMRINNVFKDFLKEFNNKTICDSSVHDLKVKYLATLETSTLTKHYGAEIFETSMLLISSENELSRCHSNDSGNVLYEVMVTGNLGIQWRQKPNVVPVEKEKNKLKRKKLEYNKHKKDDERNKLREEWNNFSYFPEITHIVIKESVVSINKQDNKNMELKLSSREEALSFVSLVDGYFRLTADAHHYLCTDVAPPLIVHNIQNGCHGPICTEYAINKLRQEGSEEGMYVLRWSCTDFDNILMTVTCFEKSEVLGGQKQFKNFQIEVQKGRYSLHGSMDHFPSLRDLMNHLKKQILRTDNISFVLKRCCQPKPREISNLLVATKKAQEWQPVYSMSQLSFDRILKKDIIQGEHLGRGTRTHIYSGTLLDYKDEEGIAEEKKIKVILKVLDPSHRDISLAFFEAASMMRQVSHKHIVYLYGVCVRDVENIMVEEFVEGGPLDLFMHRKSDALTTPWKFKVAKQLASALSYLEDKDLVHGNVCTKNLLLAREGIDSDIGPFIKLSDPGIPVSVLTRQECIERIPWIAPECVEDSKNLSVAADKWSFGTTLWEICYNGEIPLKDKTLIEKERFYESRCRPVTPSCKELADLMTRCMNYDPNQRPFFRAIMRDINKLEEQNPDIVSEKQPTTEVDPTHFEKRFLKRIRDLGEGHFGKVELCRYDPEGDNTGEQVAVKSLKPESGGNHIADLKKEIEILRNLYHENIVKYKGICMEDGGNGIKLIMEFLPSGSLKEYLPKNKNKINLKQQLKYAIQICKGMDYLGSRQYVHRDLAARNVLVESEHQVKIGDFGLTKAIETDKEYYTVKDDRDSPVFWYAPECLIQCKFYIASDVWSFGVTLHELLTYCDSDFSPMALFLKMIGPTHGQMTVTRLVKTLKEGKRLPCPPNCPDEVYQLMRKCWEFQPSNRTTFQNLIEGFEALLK
T1 sequence (Q62120 whole entry, looked up): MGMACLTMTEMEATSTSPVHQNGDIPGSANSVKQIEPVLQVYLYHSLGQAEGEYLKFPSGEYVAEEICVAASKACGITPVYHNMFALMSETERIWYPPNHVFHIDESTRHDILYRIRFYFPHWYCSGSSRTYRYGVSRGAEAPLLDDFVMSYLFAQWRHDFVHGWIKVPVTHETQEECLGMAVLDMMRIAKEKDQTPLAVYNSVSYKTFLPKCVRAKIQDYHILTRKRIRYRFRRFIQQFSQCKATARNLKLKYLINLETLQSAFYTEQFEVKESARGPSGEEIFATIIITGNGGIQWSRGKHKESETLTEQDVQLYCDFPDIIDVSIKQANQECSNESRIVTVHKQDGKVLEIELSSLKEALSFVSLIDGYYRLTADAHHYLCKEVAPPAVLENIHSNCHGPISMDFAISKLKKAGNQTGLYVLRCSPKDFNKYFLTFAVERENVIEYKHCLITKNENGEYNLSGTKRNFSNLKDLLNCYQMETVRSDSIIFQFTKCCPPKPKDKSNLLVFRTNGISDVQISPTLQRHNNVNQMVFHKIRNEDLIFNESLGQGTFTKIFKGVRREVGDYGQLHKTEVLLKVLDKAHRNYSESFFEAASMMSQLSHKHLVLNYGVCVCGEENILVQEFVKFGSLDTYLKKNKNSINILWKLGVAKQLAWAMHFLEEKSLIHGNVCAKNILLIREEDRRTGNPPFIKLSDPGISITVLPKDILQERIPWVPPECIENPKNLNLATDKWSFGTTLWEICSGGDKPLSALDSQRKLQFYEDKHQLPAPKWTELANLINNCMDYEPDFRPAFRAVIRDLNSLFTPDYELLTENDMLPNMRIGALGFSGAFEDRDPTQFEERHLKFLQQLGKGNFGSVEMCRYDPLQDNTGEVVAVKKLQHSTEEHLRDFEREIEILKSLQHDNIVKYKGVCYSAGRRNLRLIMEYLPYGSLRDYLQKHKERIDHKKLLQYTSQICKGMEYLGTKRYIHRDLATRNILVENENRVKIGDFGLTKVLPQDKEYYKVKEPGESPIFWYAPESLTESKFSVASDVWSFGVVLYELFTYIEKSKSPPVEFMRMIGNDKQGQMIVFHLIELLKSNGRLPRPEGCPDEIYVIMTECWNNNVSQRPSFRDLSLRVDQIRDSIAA

Mus musculus [4] = assay: Anti-inflammatory activity in IL-23 induced mouse psoriasis-like skin inflammation model assessed as reduction in IL-10 mRNA levels at 2 to 10 uM applied topically starting 1 day prior to IL-23 induction and continuing every other day for 14 days measured after 24 hrs post last dose by real-time PCR analysis; format: functional
[5] = Inhibition of C57BL/6 mouse CD4-positive T cell differentiation at 50 uM relative to control; format: functional; conditions: C57BL/6, CD4-positive T cell
CD4-positive T cell [6] = assay: Inhibition of C57BL/6 mouse CD4-positive T cell differentiation assessed as decrease in T-bet mRNA level 0.1 to 10 uM by real-time PCR analysis; format: functional, cell-based
Mus musculus [7] = assay: Anti-inflammatory activity in IL-23 induced mouse psoriasis-like skin inflammation model assessed as reduction in CXCL1 mRNA levels at 2 to 10 uM applied topically starting 1 day prior to IL-23 induction and continuing every other day for 14 days measured after 24 hrs post last dose by real-time PCR analysis; format: functional
Mus musculus [8] = assay: Anti-inflammatory activity in IL-23 induced mouse psoriasis-like skin inflammation model assessed as reduction in IL-1beta mRNA levels at 2 to 10 uM applied topically starting 1 day prior to IL-23 induction and continuing every other day for 14 days measured after 24 hrs post last dose by real-time PCR analysis; format: functional
[9] = Inhibition of C57BL/6 mouse CD4-positive T cell differentiation at 6.25 uM relative to control; format: functional; conditions: C57BL/6, CD4-positive T cell
Treg cell [10] = assay: Increase in IL-10 mRNA level in C57BL/6 mouse Treg cells by real-time PCR analysis; format: functional, cell-based
Th17 [11] = assay: Reduction in IL-17A production in C57BL/6 mouse Th17 cells at 10 uM by ELISA; format: functional, cell-based
CD4-positive T cell [12] = assay: Inhibition of C57BL/6 mouse CD4-positive T cell differentiation assessed as decrease in GATA-3 mRNA level 0.1 to 10 uM by real-time PCR analysis; format: functional, cell-based
[13] = Inhibition of C57BL/6 mouse CD4-positive T cell differentiation; format: functional, cell-based; conditions: C57BL/6, CD4-positive T cell
[14] = Inhibition of C57BL/6 mouse CD4-positive T cell differentiation at 25 uM relative to control; format: functional; conditions: C57BL/6, CD4-positive T cell
Mus musculus [15] = species on record: Mus musculus; assay: Inhibition of […]/TYK2 in C57BL/6 mouse CD4-positive T cell assessed as reduction in IL-12-induced STAT4 phosphorylation at 1 to 10 uM pretreated for 1 hr followed by IL-12 addition after 30 mins by Western blot analysis
[16] = target: T1, Tyrosine-protein kinase JAK1/JAK2 (Mus musculus); assay: Inhibition of JAK1/JAK2 in C57BL/6 mouse CD4-positive T cell assessed as reduction in IFNgamma-induced STAT1 phosphorylation at 1 to 10 uM pretreated for 1 hr followed by IFNgamma addition after 15 mins by Western blot analysis
Mus musculus [17] = assay: Anti-inflammatory activity in IL-23 induced mouse psoriasis-like skin inflammation model assessed as reduction in IL-1alpha mRNA levels at 2 to 10 uM applied topically starting 1 day prior to IL-23 induction and continuing every other day for 14 days measured after 24 hrs post last dose by real-time PCR analysis; format: functional
[18] = target: Tyrosine-protein kinase JAK1/JAK3 (Mus musculus) (UniProt P52332+Q62137); assay: Inhibition of JAK1/JAK3 in C57BL/6 mouse CD4-positive T cell assessed as reduction in IL-4-induced STAT6 phosphorylation at 1 to 10 uM pretreated for 1 hr followed by IL-4 addition after 15 mins by Western blot analysis
Tyrosine-protein kinase JAK1/JAK3 (Mus musculus), sequence (P52332 whole entry, looked up): as the sequence (P52332 whole entry, looked up) above
Tyrosine-protein kinase JAK1/JAK3 (Mus musculus), sequence (Q62137 whole entry, looked up): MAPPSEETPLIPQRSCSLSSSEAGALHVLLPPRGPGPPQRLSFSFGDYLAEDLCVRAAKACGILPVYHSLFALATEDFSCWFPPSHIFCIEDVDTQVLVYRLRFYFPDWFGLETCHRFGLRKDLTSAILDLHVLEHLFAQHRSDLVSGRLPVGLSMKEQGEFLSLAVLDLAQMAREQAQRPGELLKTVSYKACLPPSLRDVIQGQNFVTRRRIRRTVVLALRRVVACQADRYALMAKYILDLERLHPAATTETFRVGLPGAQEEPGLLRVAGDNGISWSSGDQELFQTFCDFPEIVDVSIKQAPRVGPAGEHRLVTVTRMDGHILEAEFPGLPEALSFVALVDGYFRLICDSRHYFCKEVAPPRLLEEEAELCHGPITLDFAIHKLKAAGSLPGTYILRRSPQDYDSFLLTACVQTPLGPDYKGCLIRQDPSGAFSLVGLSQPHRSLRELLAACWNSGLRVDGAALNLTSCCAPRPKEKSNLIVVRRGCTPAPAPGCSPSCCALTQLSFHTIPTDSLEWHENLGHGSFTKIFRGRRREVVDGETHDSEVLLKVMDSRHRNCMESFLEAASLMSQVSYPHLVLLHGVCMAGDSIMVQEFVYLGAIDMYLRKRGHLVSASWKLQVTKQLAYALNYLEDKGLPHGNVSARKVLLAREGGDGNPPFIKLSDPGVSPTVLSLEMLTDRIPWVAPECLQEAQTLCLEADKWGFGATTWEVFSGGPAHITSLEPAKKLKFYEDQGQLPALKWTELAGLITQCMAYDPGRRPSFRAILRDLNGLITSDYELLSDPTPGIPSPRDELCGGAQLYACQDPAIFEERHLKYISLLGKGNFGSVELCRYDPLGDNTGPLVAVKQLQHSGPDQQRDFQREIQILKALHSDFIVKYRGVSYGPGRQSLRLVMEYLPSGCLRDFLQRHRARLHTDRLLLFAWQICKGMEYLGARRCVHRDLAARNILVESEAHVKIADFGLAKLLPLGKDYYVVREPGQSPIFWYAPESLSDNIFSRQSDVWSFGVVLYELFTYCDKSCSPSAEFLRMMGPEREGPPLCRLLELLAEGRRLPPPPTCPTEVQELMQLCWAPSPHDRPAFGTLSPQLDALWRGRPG

[19] = Inhibition of C57BL/6 mouse CD4-positive T cell differentiation at 12.5 uM relative to control; format: functional; conditions: C57BL/6, CD4-positive T cell
Mus musculus [20] = assay: Anti-inflammatory activity in IL-23 induced mouse psoriasis-like skin inflammation model assessed as reduction in COX2 mRNA levels at 2 to 10 uM applied topically starting 1 day prior to IL-23 induction and continuing every other day for 14 days measured after 24 hrs post last dose by real-time PCR analysis; format: functional
Th1 = assay: Reduction in IFN-gamma production in C57BL/6 mouse Th1 cells at 10 uM by ELISA; format: functional, cell-based
Mus musculus [21] = assay: Anti-inflammatory activity in IL-23 induced mouse psoriasis-like skin inflammation model assessed as reduction in epidermal hyperplasia by measuring acanthosis at 2 to 10 uM applied topically starting 1 day prior to IL-23 induction and continuing every other day for 14 days measured after 24 hrs post last dose by hematoxylin and eosin staining based assay; format: functional
Mus musculus [22] = assay: Anti-inflammatory activity in IL-23 induced mouse psoriasis-like skin inflammation model assessed as reduction in dermal inflammatory infiltrates at 2 to 10 uM applied topically starting 1 day prior to IL-23 induction and continuing every other day for 14 days measured after 24 hrs post last dose by hematoxylin and eosin staining based assay; format: functional
Mus musculus [23] = assay: Anti-inflammatory activity in IL-23 induced mouse psoriasis-like skin inflammation model assessed as reduction in CCL27 mRNA levels at 2 to 10 uM applied topically starting 1 day prior to IL-23 induction and continuing every other day for 14 days measured after 24 hrs post last dose by real-time PCR analysis; format: functional
Th17 [24] = assay: Decrease in IL-17A mRNA level in C57BL/6 mouse Th17 cells 0.1 to 10 uM by real-time PCR analysis; format: functional, cell-based
CD4-positive T cell [25] = assay: Inhibition of C57BL/6 mouse CD4-positive T cell differentiation assessed as decrease in FoxP3 mRNA level 0.1 to 10 uM by real-time PCR analysis; format: functional, cell-based
Mus musculus [26] = assay: Anti-inflammatory activity in IL-23 induced mouse psoriasis-like skin inflammation model assessed as reduction in CCL17 mRNA levels at 2 to 10 uM applied topically starting 1 day prior to IL-23 induction and continuing every other day for 14 days measured after 24 hrs post last dose by real-time PCR analysis; format: functional
Mus musculus [27] = assay: Anti-inflammatory activity in IL-23 induced mouse psoriasis-like skin inflammation model assessed as reduction in IL-22 mRNA levels at 2 to 10 uM applied topically starting 1 day prior to IL-23 induction and continuing every other day for 14 days measured after 24 hrs post last dose by real-time PCR analysis; format: functional
Mus musculus [28] = assay: Anti-inflammatory activity in IL-23 induced mouse psoriasis-like skin inflammation model assessed as reduction in CCL20 mRNA levels at 2 to 10 uM applied topically starting 1 day prior to IL-23 induction and continuing every other day for 14 days measured after 24 hrs post last dose by real-time PCR analysis; format: functional

## CC(=O)O[C@@H]1C[C@@]23C[C@@]24CC[C@H](O[C@@H]2O[C@H](CO)[C@H](O)[C@H](O)[C@H]2O)C(C)(C)[C@@H]4CC[C@H]3[C@]2(C)C[C@]3(O)O[C@H](C(=O)[C@@H]4OC4(C)C)[C@@H](C)[C@@H]3[C@@]12C
Splenocyte
  CC50: 88.8 µM
Treg cell [1]
  Activity: Dose-dependent effect
CD4-positive T cell [2]
  inhibition: Active
[3]
  inhibition: Active
Mus musculus [4]
  Activity: inactive
[5]
  inhibition at 50 µM: 98.3%
CD4-positive T cell [6]
  inhibition: Active
Mus musculus [7]
  Activity: Active
Mus musculus [8]
  Activity: Active
[9]
  inhibition at 6.25 µM: 29.6%
Treg cell [10]
  Activity: Dose-dependent effect
Th17 [11]
  Activity: Active
CD4-positive T cell [12]
  inhibition: Active
[13]
  pIC50: 5.06
[14]
  inhibition at 25 µM: 93.6%
Mus musculus [15]
  inhibition: Active
[16]
  inhibition: Active
Mus musculus [17]
  Activity: Active
[18]
  inhibition: Active
[19]
  inhibition at 12.5 µM: 59.6%
Mus musculus [20]
  Activity: Active
Th1
  Activity: Active
Mus musculus [21]
  Activity: Active
Mus musculus [22]
  Activity: Active
Mus musculus [23]
  Activity: Active
Th17 [24]
  Activity: Active
CD4-positive T cell [25]
  inhibition: inactive
Mus musculus [26]
  Activity: Active
Mus musculus [27]
  Activity: Active
Mus musculus [28]
  Activity: Active
